# Measured values from ChEMBL document CHEMBL4043133, “Discovery of a novel B-cell lymphoma 6 (BCL6)-corepressor interaction inhibitor by utilizing structure-based drug design” (Bioorg Med Chem, 2017).
# Assays:
# [1] = target: T1, BCoR-BCL6 (Homo sapiens, UniProt P41182)
# Description: Inhibition of C-terminal biotin-labelled BCoR/wild-type BCL6 BTB domain (unknown origin) protein-protein interaction by ELISA
# [2] = target: T2, B-cell lymphoma 6 protein (Homo sapiens, UniProt P41182)
# Description: Binding affinity to wild-type avi-tagged BCL6 BTB domain (unknown origin) by SPR analysis
# [3] = Aqueous solubility of the compound in aqueous buffer at pH 6.8 by UV-absorbance analysis; type: physicochemical
# [4] = Permeability of the compound at pH 7.4 at 10 umol/L after 3 hrs by PAMPA; type: physicochemical; conditions: for Papp at 3 h, 10 µM: PAMPA, pH 7.4, read-out: permeability; for permeability: pampa, pH 7.4, 3 h, 10 µM
# [5] = target: T2, B-cell lymphoma 6 protein; experiment: Displacement of A488-SMRT from BCL6 BTB domain (unknown origin) by fluorescence polarization assay
# [6] = Cytotoxicity against human HepG2 cells assessed as intracellular ATP levels at 30 uM after 24 hrs by CellTiter-Glo assay relative to control; type: cell-based; conditions: read-out: Activity
# [7] = target: T1, BCoR-BCL6; experiment: Inhibition of recombinant human BCoR (112 to 753 residues) protein interaction with recombinant GAL4-fused BCL6 (5 to 129 residues) expressed in HEK293T cells measured after 20 hrs by luciferase reporter gene based mammalian two-hybrid assay; type: cell-based, HEK-293T
# [8] = Cmax in mouse at 1 mg/kg, po administered as cassette dosing; type: ADME, organism-based; parameters: dose 1 mg/kg, route oral; conditions: in vivo
# [9] = Tmax in mouse at 1 mg/kg, po administered as cassette dosing; type: ADME, organism-based; conditions: in vivo
# [10] = AUC in mouse at 1 mg/kg, po administered as cassette dosing; type: ADME, organism-based; conditions: in vivo
# [11] = Mean residence time in mouse at 1 mg/kg, po administered as cassette dosing; type: ADME, organism-based; conditions: in vivo
# [12] = Oral bioavailability in mouse at 1 mg/kg administered as cassette dosing; type: ADME, organism-based; conditions: in vivo
# [13] = Total clearance in mouse at 1 mg/kg, po or 0.1 mg/kg, iv administered as cassette dosing; type: ADME, organism-based; conditions: in vivo
# [14] = Volume of distribution at steady state in mouse at 1 mg/kg, po or 0.1 mg/kg, iv administered as cassette dosing; type: ADME, organism-based; conditions: in vivo, read-out: Vdss
SMILES,IC50 [1],solubility [3],"Papp at 3 h, 10 µM [4]",also measured
Nc1cc(Nc2ccccc2)c2nonc2c1[N+](=O)[O-],69 µM,–,–,–
CCOC(=O)CCNc1cc(Nc2ccc3[nH]c(=O)[nH]c3c2)c(Cl)cc1[N+](=O)[O-],0.43 µM,0.42 µg/mL,15.1 ×10⁻⁶ cm/s,–
O=C(O)CC(C(=O)O)N1C(=O)/C(=C2/C(=O)Nc3ccc(Br)cc32)SC1=S (centres undefined),200 µM,–,–,IC50 [5]: 212 µM
O=c1[nH]c2ccc(Nc3cc(OC4CCOCC4)c([N+](=O)[O-])cc3Cl)cc2[nH]1,0.22 µM,18 µg/mL,4.5 ×10⁻⁶ cm/s,"viability at 24 h, 30 µM [6]: 100%"
O=C1CCc2cc(Nc3cc(OC4CCOCC4)c([N+](=O)[O-])cc3Cl)ccc2N1,0.1 µM,12 µg/mL,20.6 ×10⁻⁶ cm/s,"viability at 24 h, 30 µM [6]: 83%; IC50 [7]: 0.72 µM; Cmax [8]: 233 ng/mL; Tmax [9]: 2 h; AUC [10]: 1270 ng·h/mL; MRT [11]: 3.3 h; bioavailability [12]: 79.9%; clearance [13]: 10.5 mL/min/kg; Vd [14]: 1.51 L/kg"
O=C1Cc2cc(Nc3cc(OC4CCOCC4)c([N+](=O)[O-])cc3Cl)ccc2N1,–,12 µg/mL,28.8 ×10⁻⁶ cm/s,"viability at 24 h, 30 µM [6]: 99%"
O=c1[nH]c2ccc(Nc3cc(NC4CCOCC4)c([N+](=O)[O-])cc3Cl)cc2[nH]1,0.13 µM,0.61 µg/mL,10.1 ×10⁻⁶ cm/s,–
COC(=O)c1ccc(Nc2ccc3[nH]c(=O)[nH]c3c2)c(Cl)c1,8.6 µM,–,–,–
O=C(O)CCNc1cc(Nc2ccc3[nH]c(=O)[nH]c3c2)c(Cl)cc1[N+](=O)[O-],0.13 µM,> 72 µg/mL,–,permeability [4]: Impermeable
O=c1[nH]c2ccc(Nc3cc(NCCCO)c([N+](=O)[O-])cc3Cl)cc2[nH]1,0.24 µM,0.09 µg/mL,–,permeability [4]: Impermeable; IC50 [7]: > 100 µM
O=[N+]([O-])c1c(NCCCO)cc(Nc2ccc(F)cc2)c2nonc12,14 µM,–,–,Kd [2]: 24 µM
O=c1[nH]c2ccc(Nc3cc(NCc4cccnc4)c([N+](=O)[O-])cc3Cl)cc2[nH]1,0.15 µM,< 0.23 µg/mL,14.7 ×10⁻⁶ cm/s,–

# The next lines start with results.
IC50 [1],solubility [3],"Papp at 3 h, 10 µM [4]",SMILES,also measured
4.5 µM,–,–,O=c1[nH]c2ccc(Nc3ccc([N+](=O)[O-])cc3Cl)cc2[nH]1,Kd [2]: 5 µM
83 µM,–,–,O=c1[nH]c2ccc(Nc3ccc([N+](=O)[O-])cc3Br)cc2[nH]1,–
> 300 µM,–,–,O=c1[nH]c2ccc(Nc3ccc([N+](=O)[O-])cc3C(F)(F)F)cc2[nH]1,–
43 µM,–,–,NC(=O)c1ccc(Nc2ccc3[nH]c(=O)[nH]c3c2)c(Cl)c1,–
4.3 µM,–,–,N#Cc1cc([N+](=O)[O-])ccc1Nc1ccc2[nH]c(=O)[nH]c2c1,–
62 µM,–,–,O=C(O)c1ccc(Nc2ccc3[nH]c(=O)[nH]c3c2)c(Cl)c1,–
110 µM,–,–,N#Cc1ccc(Nc2ccc3[nH]c(=O)[nH]c3c2)c(Cl)c1 [TP-021n],–
